{"source": "PubChem BioAssay (NCI)", "experiment_in_all_cases": "DTP human tumour cell line panel, 384-well format", "key": {"OVCAR-3 ovarian": {"test_system": "OVCAR-3 ovarian"}, "RXF 393 renal": {"test_system": "RXF 393 renal"}, "CCRF-CEM leukemia": {"test_system": "CCRF-CEM leukemia"}, "OVCAR-8 ovarian": {"test_system": "OVCAR-8 ovarian"}, "UO-31 renal": {"test_system": "UO-31 renal"}, "SK-MEL-2 melanoma": {"test_system": "SK-MEL-2 melanoma"}, "HCT-116 colon": {"test_system": "HCT-116 colon"}, "IGROV1 ovarian": {"test_system": "IGROV1 ovarian"}, "NCI-H226 lung": {"test_system": "NCI-H226 lung"}, "HCC-2998 colon": {"test_system": "HCC-2998 colon"}, "NCI-H522 lung": {"test_system": "NCI-H522 lung"}, "NCI-H23 lung": {"test_system": "NCI-H23 lung"}, "EKVX NSCLC": {"test_system": "EKVX NSCLC"}}, "note": "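The concentration for 50% growth inhibition is given as GI50. TGI is the concentration that stops growth completely.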", "data": [{"smiles": "NC(=O)c1nc(-c2c(F)cccc2Cl)oc1Nc1ccc(C(=O)N2CCOCC2)cc1", "values": [{"measurement": "GI50", "setting": "OVCAR-3 ovarian", "value": 1600, "unit": "nM"}, {"measurement": "TGI", "setting": "OVCAR-3 ovarian", "value": 7650, "unit": "nM"}, {"measurement": "GI50", "setting": "RXF 393 renal", "value": 1100, "unit": "nM"}, {"measurement": "TGI", "setting": "RXF 393 renal", "value": 3300, "unit": "nM"}, {"measurement": "GI50", "setting": "CCRF-CEM leukemia", "value": 211, "unit": "nM"}, {"measurement": "TGI", "setting": "CCRF-CEM leukemia", "value": 383, "unit": "nM"}, {"measurement": "GI50", "setting": "OVCAR-8 ovarian", "value": 4510, "unit": "nM"}, {"measurement": "TGI", "setting": "OVCAR-8 ovarian", "value": 18700, "unit": "nM"}, {"measurement": "GI50", "setting": "UO-31 renal", "value": 171, "unit": "nM"}, {"measurement": "TGI", "setting": "UO-31 renal", "value": 322, "unit": "nM"}, {"measurement": "GI50", "setting": "SK-MEL-2 melanoma", "value": 15300, "unit": "nM"}, {"measurement": "TGI", "setting": "SK-MEL-2 melanoma", "value": 30100, "unit": "nM"}, {"measurement": "GI50", "setting": "HCT-116 colon", "value": 957, "unit": "nM"}, {"measurement": "TGI", "setting": "HCT-116 colon", "value": 13800, "unit": "nM"}, {"measurement": "GI50", "setting": "IGROV1 ovarian", "value": 1400, "unit": "nM"}, {"measurement": "TGI", "setting": "IGROV1 ovarian", "value": 3170, "unit": "nM"}, {"measurement": "GI50", "setting": "NCI-H226 lung", "value": 474, "unit": "nM"}, {"measurement": "TGI", "setting": "NCI-H226 lung", "value": 2670, "unit": "nM"}, {"measurement": "GI50", "setting": "HCC-2998 colon", "value": 6720, "unit": "nM"}, {"measurement": "TGI", "setting": "HCC-2998 colon", "value": 21900, "unit": "nM"}, {"measurement": "GI50", "setting": "NCI-H522 lung", "value": 795, "unit": "nM"}, {"measurement": "TGI", "setting": "NCI-H522 lung", "value": 3760, "unit": "nM"}, {"measurement": "GI50", "setting": "NCI-H23 lung", "value": 600, "unit": "nM"}, {"measurement": "TGI", "setting": "NCI-H23 lung", "value": 4430, "unit": "nM"}, {"measurement": "GI50", "setting": "EKVX NSCLC", "value": 1960, "unit": "nM"}, {"measurement": "TGI", "setting": "EKVX NSCLC", "value": 7570, "unit": "nM"}]}]}
